Results: US10398689B2, “Benzopiperidine derivative, preparation method thereof and medical use thereof” (Jiangsu Hengrui Medicine Co., Ltd., priority 2015, dated 2019)

Experiments:
[1] = Pharmacokinetics assay in BALB/C nude mice after intragastrical administration; type: in vivo; details: female, mouse, po, 3 mg/kg, plasma; for Vd/F: read-out: Apparent Distribution Volume Vz/F; for AUC: read-out: Area Under Curve AUC; for CL/F: read-out: Clearance CL/F; for half-life: read-out: Half-Life t1/2 (converted); for MRT: read-out: Mean Residence Time MRT; for Cmax: read-out: Plasma Conc. Cmax
Protocol: BALB/C nude mice were used as test animals. The drug concentration in plasma at different time points was determined by LC/MS/MS after intragastrical administration of the compounds of Examples 1, 7, 8, 10, 11, 14, 16, 39 and 42 to BALB/C nude mice. The pharmacokinetic behavior of the compounds of the compounds of the present invention was studied and evaluated in BALB/C nude mice.
Eighty-one (81) female BALB/C nude mice, were equally divided into 9 groups, which were purchased from SINO-BRITSH SIPPR/BK LAB. ANIMAL LTD., CO, with Certificate No.: SOCK (Shanghai) 2008-0016.
The appropriate amount of each test compound was weighed, and successively added with 9% PEG400+0.5% tween 80+0.5% PVP+90% aqueous solution of 0.5% CMC.
After an overnight fasting, 81 female BALB/C nude mice were equally divided into 9 groups; and administered the test compounds intragastrically at an administration volume of 0.2 mL/10 g.
81 female Balb/C nude mice were administered the test compounds intragastrically after an overnight fasting. Blood (0.1 mL) was taken (3 animals at each time point) at 0.5, 1.0, 2.0, 4.0, 6.0, 8.0, 11.0, and 24.0 h after administration. The samples were stored in heparinized test tubes, and centrifuged for 10 minutes at 3,500 rpm to separate the blood plasma. The plasma samples were stored at −20° C.
The concentration of the prototype drug in the plasma and in the solution to be administered was determined by liquid chromatography tandem mass spectrometry (LC/MS MS).

[2] = target: T1, ER (estrogen receptor) (Homo sapiens, UniProt P03372); experiment: Inhibition of the binding of estrogen (E) to estrogen receptor (ER), MCF-7/ERE-luciferase reporter cells; type: cell-based; details: MCF-7/ERE-luciferase cells, 0.1 nM estradiol, 24 hours, chemiluminescence; read-out: IC50 value of inhibition effect on the binding of E to ER
T1 construct: MCF-7/ERE-luciferase monoclonal cells were selected by transfection of MCF-7; host or cells: MCF-7/ERE-luciferase (only the ERE-luciferase reporter was transfected)
T1 sequence (P03372 1-595): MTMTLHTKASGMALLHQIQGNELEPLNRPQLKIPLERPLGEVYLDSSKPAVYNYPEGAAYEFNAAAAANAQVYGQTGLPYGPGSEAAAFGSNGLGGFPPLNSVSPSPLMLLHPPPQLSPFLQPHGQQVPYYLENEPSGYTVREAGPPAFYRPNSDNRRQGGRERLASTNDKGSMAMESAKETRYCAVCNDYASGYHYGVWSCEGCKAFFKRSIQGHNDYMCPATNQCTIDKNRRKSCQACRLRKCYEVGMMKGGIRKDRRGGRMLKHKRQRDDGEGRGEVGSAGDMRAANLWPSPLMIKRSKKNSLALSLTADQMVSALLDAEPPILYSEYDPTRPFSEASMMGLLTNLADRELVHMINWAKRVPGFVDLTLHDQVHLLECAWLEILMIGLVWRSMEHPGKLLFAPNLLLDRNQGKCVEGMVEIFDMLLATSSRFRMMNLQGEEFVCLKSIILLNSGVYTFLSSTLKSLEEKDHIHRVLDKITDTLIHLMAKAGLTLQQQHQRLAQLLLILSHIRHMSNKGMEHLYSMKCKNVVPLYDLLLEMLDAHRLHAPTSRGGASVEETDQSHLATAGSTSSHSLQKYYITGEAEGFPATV
Protocol: The compounds of the present invention have an inhibition effect on the binding of E (estrogen) to ER (estrogen receptor), thereby blocking the binding of a complex of E and ER complex to ERE (estrogen responsive element), and subsequently blocking the expression of downstream luciferase protein.
The inhibition effect of the compounds on the binding of E to ER in vitro was tested by the following method.
The object of this experiment was to determine the inhibition effect of the compounds on the binding of E to ER, and the in vitro activity of the compounds was evaluated according to the IC50 values.
ERE was cloned into the upstream of the luciferase gene, and MCF-7/ERE-luciferase monoclonal cells were selected by transfection of MCF-7 (Cell Bank of Chinese Academy of Sciences typical culture preservation Committee, TCHu74). MCF-7/ERE-luciferase cells were inoculated into the MEM medium (hyclone, SH30024.01B) containing 10% charcoal stripped FBS (Moregate, FBSF), 1% sodium pyruvate (Sigma, S8636), 1% nonessential amino acids (Sigma, M7145) and 500 μg/ml G418 in a 96-well plates with a density of 30,000 cells/well, and the cells were incubated under the conditions of 37° C., and 5% CO2. The drug was prepared as a 20 mM stock solution that was later diluted with 100% DMSO in 10 fold concentration gradient, and then diluted 20-fold with the medium DMEM. After incubation for 24 hours, the medium was removed, then 0.1 nM estradiol (Sigma, E2758) and 10 μl of the drug diluted with the medium were added to each well, and the control group was added with DMSO. The plate was gently shaken and incubated in a incubator at 37° C., 5% CO2. After 24 hours, the cell culture medium was discarded, Then, 50 μl of the prepared luciferase substrate (Promega, E6110) was added to each well, and the plate was placed in the dark at room temperature for 10-15 minutes, then the chemiluminescence signal value was determined.
The inhibition effect of the compounds of the present invention on the binding of E to ER was tested by the experiment described above. The values of the chemiluminescence signal vs the logarithmic concentrations of the compounds were plotted using Graphpad Prism, and the measured IC50 values are shown in Table 1.

[3] = test system: MCF7 cells; experiment: Inhibition of the proliferation of MCF7 cells (Cell Titer-Glo); type: cell-based; details: Homo sapiens, MCF-7 cells, 72 hours, read-out: IC50 value of inhibition effect on the proliferation of MCF7 cells
Protocol: The object of this experiment was to determine the inhibition effect of the compounds on the proliferation activity of MCF7 cells, and the in vitro activity of the compounds was evaluated according to the IC50 values.
MCF-7 cells (Cell Bank of Chinese Academy of Sciences typical culture preservation Committee, TChu 74) were inoculated into the MEM medium (Hyclone, SH30024.01B) containing 10% FBS (Gibco, 10099-141), 1% sodium pyruvate (Sigma, S8636), and 1% nonessential amino acids (Sigma, M7145) in a 96-well plate with a density of 40,000 cells/well, and the cells were incubated under the conditions of 37° C., and 5% CO2. The compound was prepared as a 20 mM stock solution that was later diluted to 1000× final concentration with 100% DMSO, and then diluted with 20-fold medium containing 2% FBS. After incubation for 24 hours, the medium was removed and 90 μl of the medium containing 2% FBS and 10 μl of the drug were added to each well, 10 […] of DMSO was added to the control group, and the blank group contained only 100 μl medium containing 2% FBS. The plate was gently shaken and incubated in a incubator at 37° C., 5% CO2. After 72 hours later, 50 μl of mixed Cell Titer-Glo (Promega, G7571) was added to each well. The plate was shaken until the ingredients were mixed uniformly, and placed at room temperature for 10 minutes, then the chemiluminescence signal value was determined. The inhibition effect of the compound AZD9496 at 100 nM on the proliferation of MCF-7 cells was set to 100%, the maximum inhibition rate of other compounds=(chemiluminescence signal valuenegative control−chemiluminescence signal valuecompound 100 nm)/(chemiluminescence signal valuenegative control−chemiluminescence signal valueAZD9496 100 nm)×100%, and the negative control was a well with 0.5% DMSO.
The values of the chemiluminescence signals vs the logarithmic concentrations of the compounds were plotted using Graghpad Prism to obtain the IC50 values.

Row | SMILES | Vd/F [1] | AUC [1] | CL/F [1] | half-life [1] | MRT [1] | Cmax [1] | IC50 [2] | IC50 [3]
1 | CC1Cc2cc(-c3cnn(C)c3)ccc2C(c2ccc(/C=C/C(=O)O)cc2)N1c1ccc(C2CC2)cc1 [Example 10, (E)-3-(4-((1R,3R/1S,3S)-2-(4-Cyclopropylphenyl)-3-methyl-6-(1-methyl-1H-pyrazol-4-yl)-1,2,3,4-tetrahydroisoquinolin-1-yl)phenyl)acrylic acid] | 3.18 L/kg | 6280 ng·h/mL | 7.96 mL/min/kg | 4.61 h | 7.08 h | 1070 ng/mL | 1070 pM | 300 pM
2 | CC(C)c1ccc(N2C(C)Cc3cc(-c4cnn(C)c4)ccc3C2c2ccc(/C=C/C(=O)O)cc2)cc1 [Example 16, (E)-3-(4-((1R,3R/1S,3S)-2-(4-Isopropylphenyl)-3-methyl-6-(1-methyl-1H-pyrazol-4-yl)-1,2,3,4-tetrahydroisoquinolin-1-yl)phenyl)acrylic acid] | 1.43 L/kg | 9120 ng·h/mL | 5.48 mL/min/kg | 3.01 h | 4.87 h | 1560 ng/mL | 2150 pM | 930 pM
3 | CC1Cc2cc(-c3cn[nH]c3)ccc2C(c2ccc(/C=C/C(=O)O)cc2)N1c1ccc(C2CC2)cc1 [Example 36, (E)-3-(4-((1R,3R/1S,3S)-2-(4-cyclopropylphenyl)-3-methyl-6-(1H-pyrazol-4-yl)-1,2,3,4-tetrahydroisoquinolin-1-yl)phenyl)acrylic acid] |  |  |  |  |  |  | 5630 pM | 2800 pM
4 | Cc1ccc(N2C(C)Cc3cc(-c4cnn(C)c4)ccc3C2c2ccc(/C=C/C(=O)O)cc2)c(C)c1 [Example 37, (E)-3-(4-((1R,3R/1S,3S)-2-(2,4-Dimethylphenyl)-3-methyl-6-(1-methyl-1H-pyrazol-4-yl)-1,2,3,4-tetrahydroisoquinolin-1-yl)phenyl)acrylic acid] |  |  |  |  |  |  | 840 pM | 1740 pM
5 | CC1Cc2cc(-c3cnn(C)c3)ccc2C(c2ccc(/C=C/C(=O)O)cc2)N1c1ccc(CC2CC2)cc1 [Example 47, (E)-3-(4-((1R,3R/1S,3S)-2-(4-(Cyclopropylmethyl)phenyl)-3-methyl-6-(1-methyl-1H-pyrazol-4-yl)-1,2,3,4-tetrahydroisoquinolin-1-yl)phenyl)acrylic acid] |  |  |  |  |  |  | 5390 pM | 4900 pM
6 | CC(C)c1ccc(N2C(C)Cc3cc(-c4cnn(C(F)F)c4)ccc3C2c2ccc(/C=C/C(=O)O)cc2)cc1 (stereo not drawn) [Example 49] |  |  |  |  |  |  | 3460 pM | 1040 pM

These reach a lower IC50 [2]. Values come first.

Row | Vd/F [1] | AUC [1] | CL/F [1] | half-life [1] | MRT [1] | Cmax [1] | IC50 [2] | IC50 [3] | SMILES
7 |  |  |  |  |  |  | 180 pM | 380 pM | CCn1cc(-c2ccc3c(c2)C[C@@H](C)N(c2ccc(C(C)C)cc2)[C@@H]3c2c(F)cc(/C=C/C(=O)O)cc2F)cn1 [Example 38, (E)-3-(4-((1S,3R)-6-(1-Ethyl-1H-pyrazol-4-yl)-2-(4-isopropylphenyl)-3-methyl-1,2,3,4-tetrahydroisoquinolin-1-yl)-3,5-difluorophenyl)acrylic acid]
8 | 1.53 L/kg | 10200 ng·h/mL | 4.92 mL/min/kg | 3.6 h | 7.02 h | 1760 ng/mL | 170 pM | 420 pM | CC(C)c1ccc(N2[C@H](c3c(F)cc(/C=C/C(=O)O)cc3F)c3ccc(-c4cnn(C)c4)cc3C[C@H]2C)cc1 [Example 39, (E)-3-(3,5-Difluoro-4-((1S,3R)-2-(4-isopropylphenyl)-3-methyl-6-(1-methyl-1H-pyrazol-4-yl)-1,2,3,4-tetrahydroisoquinolin-1-yl)phenyl)acrylic acid]
9 |  |  |  |  |  |  | 710 pM | 590 pM | CC(C)c1ccc(N2C(C)Cc3cc(-c4cn[nH]c4)ccc3C2c2ccc(/C=C/C(=O)O)cc2)cc1 [Example 48, (E)-3-(4-((1R,3R/1S,3S)-2-(4-Isopropylphenyl)-3-methyl-6-(1H-pyrazol-4-yl)-1,2,3,4-tetrahydroisoquinolin-1-yl)phenyl)acrylic acid]
